Several values for one entry are separate records, joined by “and”; a condition that tells them apart may be missing. Equal values may be shown once. In the oligonucleotide strings, read from the 5' end, every base follows the letter of its sugar. An asterisk marks phosphorothioate; unmarked linkages are phosphodiester. Other units and linkages are bracketed, terminal groups are in braces. A string of capitals states the bases alone. e = 2'-O-(2-methoxyethyl) (MOE); [5mC] = 5-methylcytosine; d = 2'-deoxy (DNA)
System: HeLa cells
Test: Cell cycle assay in HeLa cells
Type: cell-based, human
Settings: for % cells in cell cycle phase: G1 / % cells in cell cycle phase: G2/M / % cells in cell cycle phase: S / % cells in cell cycle phase: aneuploid / % cells in cell cycle phase: subG1: 48 hours after treatment, relative to untreated control (UTC=100); for phase of the cell cycle in which cells arrest or delay / chromosome missegregation (subG1 or aneuploid DNA content): HeLa; for chromosome missegregation (subG1 or aneuploid DNA content): 24-hour and 48-hour timepoints
Procedure: In some embodiments, HeLa cells were plated on collagen-coated 24-well plates at 50,000-60,000 cells per well, and allowed to attach to wells overnight. In some embodiments, HeLa cells were synchronized by double thymidine block (cells were washed three times with PBS, then grown in 10% FBS containing 2 mM thymidine; then 19 hours later, cells were washed three times in PBS, 10% FBS for 9 hours; cells were then incubated in 10% FBS, 2 mM thymidine for 15 hours; then washed three times with PBS, 10% FBS and samples were taken every two hours over a 16 hour period). A portion of each time sample was fixed with ethanol and treated with propidium iodide and subjected to FACs analysis for determination of the percentage of cells in each phase of the cell cycle. […] HeLa cells treated with 10 μM cisplatin or 100 ng/ml nocodazole were used as controls for G1-phase and late G2/M-phases, respectively. From the remaining portion of each of these time samples, total RNA was isolated and used to assess the expression of cell cycle marker mRNAs using the real-time RT-PCR methods and/or used to screen microarrays to assess the expression of miRNAs over the course of the cell cycle. It was observed that several miRNAs are expressed in a cell-cycle-dependent manner. Shown in Table 30 are the mRNA levels of the E2F1 transcription factor and topoisomerase 2A (Top2A), which vary over the course of the cell cycle and can be used for comparison to the experimental groups for the confirmation of cell cycle phase. Data are an average of three trials.
In some embodiments, HeLa cells were also treated with oligomeric compounds targeting miRNAs. […] The medium was removed from the plates. Each well was washed in 250 μl of PBS. […] Control cells received LIPOFECTIN™ only. […] After 24 hours (Table 31) or 48 hours (Table 32), cells were prepared for flow cytometry analysis to generate a cell cycle profile. The cell cycle profile was analyzed with the ModFit program (Verity Software House, Inc., Topsham Me.).
The random-mer ISIS 29848 (SEQ ID NO: 737) was used as a negative control, and ISIS 183891 (SEQ ID NO: 847), targeting kinesin-like 1/Eg5, was included as a positive control. Data are expressed as percentage of cells in each phase relative to the untreated control (UTC); values above 100 are considered to indicate a delay or arrest in that phase of the cell cycle. […] In some cases, the same oligomeric compound was tested in repeated experiments.
In accordance with the present invention, certain oligomeric compounds targeting miRNAs were selected for dose response studies. Using the cell cycle assay described above, the cell cycle profiles of HeLa or A549 cells treated with varying concentrations of oligomeric compounds of the present invention were assessed.
HeLa cells were treated with 25-, 50-, 100- or 150 nM of the oligomeric compounds ISIS
Numbers 327902 (SEQ ID NO: 320) and 328383 (SEQ ID NO: 492), both targeted against mir-192, and ISIS 327905 (SEQ ID NO: 323), targeting mir-205, and ISIS 328403 (SEQ ID NO: 512), targeting mir-106. Cells treated with increasing concentrations of oligomeric compounds were compared to untreated cells, to assess the dose-dependency of the observed delay or arrest. The random-mer ISIS 29848 was used as a negative control. Cells were prepared for flow cytometry 48-hours after oligonucleotide treatment, as described, supra.

[1] = HeLa cells, 150 nM oligomeric compound, 24 hours, relative to untreated control (UTC = 100)
[2] = HeLa cells, 150 nM oligomeric compound
[3] = HeLa cells, 150 nM, 48 hours, relative to untreated control

| Substance | % cells aneuploid [1] | % cells in cell cycle phase G1 [1] | % cells in cell cycle phase G2/M [1] | % cells in cell cycle phase S [1] | % cells in cell cycle phase subG1 [1] | % cells in cell cycle phase: G1 [2] | % cells in cell cycle phase: G2/M [2] | % cells in cell cycle phase: S [2] | % cells in cell cycle phase: aneuploid [2] | % cells in cell cycle phase: subG1 [2] | phase of the cell cycle in which cells arrest or delay (150 nM, 48 hours) | % cells in cell cycle phase G1 [3] | % cells in cell cycle phase G2/M [3] | % cells in cell cycle phase S [3] | % cells in cell cycle phase aneuploid [3] | % cells in cell cycle phase subG1 [3] | chromosome missegregation (subG1 or aneuploid DNA content) (150 nM) |
| --- | --- | --- | --- | --- | --- | --- | --- | --- | --- | --- | --- | --- | --- | --- | --- | --- | --- |
| 345373 (AGCCTATCCTGGATTACTTGAA; sugars from the 5' end e5 d10 e7, all phosphorothioate, methylation of C not given here) [compound 345373] | 68% | 66% | 176% | 94% | 196% | 75% | 145% | 132% | 119% | 116% |  |  |  |  |  |  |  |
| 338741 (antisense GCTTCACAATTAGACCATCC; all 2'-MOE, all phosphorothioate, methylation of C not given here) [compound 338741] | 166% | 141% | 112% | 73% | 157% | 100% | 99% | 101% | 170% | 185% |  |  |  |  |  |  |  |
| 328676 (eA*e[5mC]*e[5mC]*eT*e[5mC]*d[5mC]*d[5mC]*dA*dG*d[5mC]*d[5mC]*dA*dA*dT*d[5mC]*e[5mC]*eA*eT*eG*eT; antisense) [compound 328676] | 169% | 99% | 134% | 86% | 139% | 86% | 118% | 118% | 172% | 366% |  |  |  |  |  |  |  |
| 328749 (antisense e[5mC]*eA*eG*e[5mC]*e[5mC]*dT*dG*d[5mC]*d[5mC]*dA*d[5mC]*d[5mC]*dG*d[5mC]*d[5mC]*eG*e[5mC]*eT*eT*eT) [compound 328749] | 138% | 126% | 110% | 82% | 312% | 37% | 246% | 129% | 65% | 962% |  |  |  |  |  |  |  |
| GCCAAGGCGTGACATGATAT (chemistry not given here) [ISIS 25691, 5-10-5 2′-MOE gapmer PS targeted to Drosha RNase III mRNA] |  |  |  |  |  |  |  |  |  |  | increased percentage of cells in S-phase as well as a significant percentage of cells in the subG1 and aneuploid categories |  |  |  |  |  |  |
| 328337 (eG*e[5mC]*eT*eA*eG*dA*dT*dA*d[5mC]*dA*dA*dA*dG*dA*dT*eG*eG*eA*eA*eA) [compound 328337] | 104% and 64% | 106% and 108% | 113% and 109% | 88% | 107% and 99% | 92% and 73% | 119% and 135% | 105% and 143% | 108% and 74% |  |  |  |  |  |  |  |  |
| 338826 (antisense CGGATCCTGTTACCTCACCA; all 2'-MOE, all phosphorothioate, methylation of C not given here) [compound 338826] | 138% | 148% | 90% | 79% | 145% | 61% | 182% | 124% | 137% | 696% |  |  |  |  |  |  |  |
| ISIS 341787: SEQ ID NO: 852, targeted against mir-125a (mouse) (CACAGGTTAAAGGGTCTCAGGGA; all 2'-MOE, all phosphorothioate, methylation of C not given here) |  |  |  |  |  |  |  |  |  |  | arrest or delay in G2/M as well as an increased percentage of cells in the subG1 and aneuploid categories |  |  |  |  |  |  |
| 338797 (antisense CTGGGGAGGGGGTTAGCGTC; all 2'-MOE, all phosphorothioate, methylation of C not given here) [compound 338797] | 193% | 101% | 148% | 79% | 197% | 66% | 168% | 124% | 175% | 813% |  | 104% | 115% | 89% | 125% | 144% |  |
| 338750 (antisense TCCGCGGGGGCGGGGAGGCT; all 2'-MOE, all phosphorothioate, methylation of C not given here) [compound 338750] | 166% | 148% | 97% | 76% | 107% | 99% | 103% | 101% | 190% | 201% |  |  |  |  |  |  |  |
| 338713 (antisense ACCTCTCAGGAAGACGGACT; all 2'-MOE, all phosphorothioate, methylation of C not given here) [compound 338713] | 187% | 152% | 101% | 72% | 93% | 95% | 109% | 104% | 194% | 426% |  |  |  |  |  |  |  |
| GGTACAATCAACGGTCGATGGT (anti-miR; chemistry not fully specified) [ISIS 327934, uniform 2′-MOE PS; targets mir-213] |  |  |  |  |  |  |  |  |  |  | G2/M- and S-phases |  |  |  |  |  |  |
| ISIS 338833: SEQ ID NO: 660, targeted to hypothetical miRNA-181 (TCGTGCACCTGAGGAGTCTG; all 2'-MOE, all phosphorothioate, methylation of C not given here) |  |  |  |  |  |  |  |  |  |  |  |  |  |  |  |  | induce chromosome missegregation events |
| CAGACTCCGGTGGAATGAAGGA (anti-miR; chemistry not fully specified) [ISIS 327905, uniform 2′-MOE PS; targets mir-205] |  |  |  |  |  |  |  |  |  |  | S-phase |  |  |  |  |  |  |
| 328780 (antisense eT*eG*eT*e[5mC]*eA*dT*dG*dG*dA*d[5mC]*dA*dG*dG*dA*dT*eG*eA*eA*eT*eA) [compound 328780] | 149% | 96% | 136% | 87% | 124% | 83% | 110% | 130% | 133% | 917% |  |  |  |  |  |  |  |
| ISIS 338797: SEQ ID NO: 624, targeted to hypothetical miRNA-144 (CTGGGGAGGGGGTTAGCGTC; all 2'-MOE, all phosphorothioate, methylation of C not given here) |  |  |  |  |  |  |  |  |  |  |  |  |  |  |  |  | induce chromosome missegregation events |
